Results from US20230167103A1 (Bayer Aktiengesellschaft, priority 2020, published 2023).

The compounds below were run against T1, human DGKζ (Homo sapiens, UniProt Q13574) (assay: Human DGKζ kinase activity inhibition assay (ADP-Glo)). Settings: example compounds; recombinant full-length human DGKζ, 1,2-dioleoyl-sn-glycerol 7 μM, ATP 55 μM, 20 min at 22° C.; read-out: IC50 values of examples in in vitro human DGKζ kinase activity inhibition assays.
T1 construct: made in house; host or cells: Sf9 insect cells, baculovirus
T1 sequence (Q13574 with tags, fused parts or gaps): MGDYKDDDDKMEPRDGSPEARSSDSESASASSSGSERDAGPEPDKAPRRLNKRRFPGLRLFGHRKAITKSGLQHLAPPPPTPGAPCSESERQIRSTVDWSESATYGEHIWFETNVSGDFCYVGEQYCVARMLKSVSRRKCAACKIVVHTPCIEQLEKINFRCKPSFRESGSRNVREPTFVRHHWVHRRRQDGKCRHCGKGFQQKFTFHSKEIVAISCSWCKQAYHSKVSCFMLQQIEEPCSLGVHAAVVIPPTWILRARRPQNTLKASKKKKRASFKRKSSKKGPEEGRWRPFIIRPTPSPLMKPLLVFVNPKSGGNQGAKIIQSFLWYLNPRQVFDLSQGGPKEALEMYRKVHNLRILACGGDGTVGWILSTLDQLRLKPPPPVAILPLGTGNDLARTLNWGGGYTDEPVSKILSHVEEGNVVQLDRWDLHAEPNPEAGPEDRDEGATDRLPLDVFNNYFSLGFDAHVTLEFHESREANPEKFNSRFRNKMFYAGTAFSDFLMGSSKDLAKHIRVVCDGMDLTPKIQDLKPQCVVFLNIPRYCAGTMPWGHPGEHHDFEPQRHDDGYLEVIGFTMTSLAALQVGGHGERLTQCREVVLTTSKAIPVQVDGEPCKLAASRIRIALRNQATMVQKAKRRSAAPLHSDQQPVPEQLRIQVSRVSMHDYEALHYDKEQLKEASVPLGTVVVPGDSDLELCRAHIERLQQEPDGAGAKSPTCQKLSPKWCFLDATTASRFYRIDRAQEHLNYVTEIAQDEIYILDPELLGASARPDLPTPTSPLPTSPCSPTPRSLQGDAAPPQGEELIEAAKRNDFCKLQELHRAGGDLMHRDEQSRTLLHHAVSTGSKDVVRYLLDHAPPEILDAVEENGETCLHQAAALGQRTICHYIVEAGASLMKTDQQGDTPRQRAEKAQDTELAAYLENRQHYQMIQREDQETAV
Assay type: biochemical
In short: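 Enzyme was C-terminally FLAG-tagged full-length human DGKζ from baculovirus-infected insect cells, typically about 0.1 nM, with 1,2-dioleoyl-sn-glycerol in octyl-β-D-glucopyranoside micelles as substrate. ADP formed was detected by ADP-Glo luminescence; data normalised to no-inhibitor (0%) and no-enzyme (100%) controls.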

Row | IC50 [nM] | Compound
1 | 9 | CC(C(N)=O)N(c1ccc(F)cc1)c1nc(N)c(C(=O)c2nc(-c3ccc(Cl)cc3)no2)s1 (racemic) [Example 1, rac-2-(N-[4-amino-5-[3-(4-chlorophenyl)-1,2,4-oxadiazole-5-carbonyl]thiazol-2-yl]-4-fluoro-anilino)propanamide]
2 | 938 | CC(C(N)=O)N(c1ccc(F)cc1)c1nc(N)c(C(=O)c2cc(C(=O)Nc3cnn(C)c3)no2)s1 (racemic) [Example 12, rac-5-[4-amino-2-(N-(2-amino-1-methyl-2-oxo-ethyl)-4-fluoro-anilino)thiazole-5-carbonyl]-N-(1-methylpyrazol-4-yl)isoxazole-3-carboxamide]
3 | 293 | CC(C(N)=O)N(c1ccc(F)cc1)c1nc(N)c(C(=O)c2cc(C(=O)NC3CCC3)no2)s1 (racemic) [Example 21, rac-5-[4-amino-2-(N-(2-amino-1-methyl-2-oxo-ethyl)-4-fluoro-anilino)thiazole-5-carbonyl]-N-cyclobutyl-isoxazole-3-carboxamide]
4 | 223 | CC(C)NC(=O)c1cc(C(=O)c2sc(N(c3ccc(F)cc3)C(C)C(N)=O)nc2N)on1 (racemic) [Example 34, rac-5-[4-amino-2-(N-(2-amino-1-methyl-2-oxo-ethyl)-4-fluoro-anilino)thiazole-5-carbonyl]-N-isopropyl-isoxazole-3-carboxamide]
5 | 94 | CC(C(N)=O)N(c1ccc(F)cc1)c1nc(N)c(C(=O)c2cc(C(=O)NC3CCC(C)(C)C3)no2)s1 (racemic) [Example 43, 5-[4-amino-2-(N-(2-amino-1-methyl-2-oxo-ethyl)-4-fluoro-anilino)thiazole-5-carbonyl]-N-(3,3-dimethylcyclopentyl)isoxazole-3-carboxamide]
6 | 61 | C[C@H](C(N)=O)N(c1ccc(F)cc1)c1nc(N)c(C(=O)c2cc(-c3ccccc3)no2)s1 [Example 3.1, (R)-2-(N-[4-amino-5-(3-phenylisoxazole-5-carbonyl)thiazol-2-yl]-4-fluoro-anilino)propanamide]
7 | 325 | CC(C(N)=O)N(c1ccc(F)cc1)c1nc(N)c(C(=O)c2cc(CN3CC(F)C3)no2)s1 (racemic) [Example 73, rac-2-(N-[4-amino-5-[3-[(3-fluoroazetidin-1-yl)methyl]isoxazole-5-carbonyl]thiazol-2-yl]-4-fluoro-anilino)propanamide]
8 | 134 | CC(C(N)=O)N(c1ccc(F)cc1)c1nc(N)c(C(=O)c2cc(C(=O)NC3CCCC3)no2)s1 (racemic) [Example 25, rac-5-[4-amino-2-(N-(2-amino-1-methyl-2-oxo-ethyl)-4-fluoro-anilino)thiazole-5-carbonyl]-N-cyclopentyl-isoxazole-3-carboxamide]
9 | 325 | CC(C(N)=O)N(c1ccc(F)cc1)c1nc(N)c(C(=O)c2nc(-c3cnn(C)c3)no2)s1 (racemic) [Example 58, rac-2-(N-[4-amino-5-[3-(1-methylpyrazol-4-yl)-1,2,4-oxadiazole-5-carbonyl]thiazol-2-yl]-4-fluoro-anilino)propanamide]
10 | 565 | CC(C(N)=O)N(c1ccc(F)cc1)c1nc(N)c(C(=O)c2cc(C(=O)NC3CC3)no2)s1 (racemic) [Example 15, rac-5-[4-amino-2-(N-(2-amino-1-methyl-2-oxo-ethyl)-4-fluoro-anilino)thiazole-5-carbonyl]-N-cyclopropyl-isoxazole-3-carboxamide]
11 | 28 | CC(C)c1noc(C(=O)c2sc(N(c3ccc(F)cc3)C(C)C(N)=O)nc2N)n1 (racemic) [Example 49, rac-2-(N-[4-amino-5-(3-isopropyl-1,2,4-oxadiazole-5-carbonyl)thiazol-2-yl]-4-fluoro-anilino)propanamide]
12 | 32 | CC(C(N)=O)N(c1ccc(F)cc1)c1nc(N)c(C(=O)c2nc(C3CC3)no2)s1 (racemic) [Example 57, rac-2-(N-[4-amino-5-(3-cyclopropyl-1,2,4-oxadiazole-5-carbonyl)thiazol-2-yl]-4-fluoro-anilino)propanamide]
